Read-outs that look alike come from different tables or passages of the source.
Experiments:
[1] = system: 9 different animal tumors; settings: NCI program; cited from earlier work
NRK-49F = assay: Intracellular phosphorylation of 3H-FTdR in NRK-49F cells; format: in vitro ADME; settings: 1/um 3H-FTdR, within 24 hours, Rat NRK-49F
Experimental: (§1) The critical factor for 3'-fluoro-substituted deoxynucleosides to reach a high intracellular efficiency is their ability to be phosphorylated in situ in the infected cells. […] By comparison, the phosphorylation of 50 μm N3 -TdR by HTLV-IIIB -infected H9 cells to the triphosphate during a 24-hour incubation has been reported to reach only 0.9 pmoles/10^6 cells and to be accompanied by an extreme accumulation of the monophosphate of N3 -TdR (460 pmoles/10^6 cells), reflecting a strong inhibition of the dTMP-kinase (Furman et al., Proc. Natl. Acad. Sci. U.S.A. 83 8333 (1986)) and entailing considerable alterations of the deoxynucleoside triphosphate substrate pools (Furman et al., loc. cit.) which affect cellular DNA synthesis.
(§2) Synthesis of nucleotides from 1/um^3 H-FTdR (tritium labeled)
(§3) in cells of various species within 24 hours.

3T3 = assay: Intracellular phosphorylation of 3H-FTdR in 3T3 cells; format: in vitro ADME; settings: 1/um 3H-FTdR, within 24 hours, Mouse 3T3
Experimental: as §1, §2, §3

MT4 = assay: Intracellular phosphorylation of 3H-FTdR in MT4 cells; format: in vitro ADME; settings: 1/um 3H-FTdR, within 24 hours, Human MT4
Experimental: as §1, §2, §3

[2] = system: K-37 immortalized T-cells; assay: Inhibition of proliferation of K-37 cells; format: cell-based; settings: Homo sapiens, T-cell
From the text: (§4) Originally FTdR was developed as a cytostatic agent (P. Langen et al., Acta biol. med. Germ. 23, 759, 1969; and U.S. Pat. No. 3,775,397) and, therefore, its cytostatic efficacy has been examined in extensive prior studies. […] Ehrlich-mouse-ascites-carcinoma cells (EMAC) represents an exception to that finding, and this is probably connected to its high capability of phosphorylation of FTdR, which is 10 times higher than in human cells. The fast reversibility of the cytostatic effects on EMAC cells was regarded as a special property of this compound (P. Langen et al., Europ. J. Cancer. 14. 349, 1978). The antiproliferative effect of FTdR and FddUrd, and in comparison thereto of N3 -TdR were tested on human cell lines with regard to a possible use in humans. […] When FTdR is compared to N3 -TdR. The effects are very similar, however somewhat lower in each case for N3 -TdR than for FTdR.
(§5) CD50 : inhibitory dose required to reduce the cell number by 50%

H9 (HTLV-IIIB) = assay: Intracellular phosphorylation of 3H-FTdR in H9 (HTLV-IIIB) cells; format: in vitro ADME; settings: 1/um 3H-FTdR, within 24 hours, Human H9 (HTLV-IIIB)
Experimental: as §1, §2, §3

H9 immortalized T-cells = assay: Inhibition of proliferation of H9 cells; format: cell-based; settings: Homo sapiens, T-cell
From the text: as §4, §5

HIV = assay: Inhibition of the cytopathic effect of HIV on MT-4 cells; format: cell-based; settings: for EC50: Human immunodeficiency virus 1, MT4, 144 h
Experimental: (§6) Under in vitro conditions immortalized T-lymphocytes can be killed within few days by the cytopathic effect of HIV. […] For this purpose about 20,000 MT-4 cells (Harada et al. Science 229, 563 (1985)) Were infected with HIV (titer: 0.04 m.o.i.) and incubated in the presence or absence of varying concentrations of compounds according to formula I, with 10% fetal calf serum (FCS) in 200 μl RPMI medium. After 6 days of incubation the viable cells were counted that were excluded from trypan blue staining.

[3] = system: Rauscher murine leukemia virus (RLV); assay: Antiretroviral activity in mice infected with Rauscher murine leukemia virus; format: in vivo; settings: for Reverse transcriptas serum / mean spleen weight: RLV +; for Reverse transcriptas serum: 100% = 66000 dpm, treatment discontinued 12 hours before
Experimental: (§7) Therefore we examined the toxicity and antiretroviral activity of FTdR in mice infected with Rauscher murine leukemia virus. Different doses of FTdR were applied to BalB/c Han strain of mice in plain water for 20 days beginning 2-8 hours after RLV infection.

[4] = system: Ehrlich-mouse-ascites-carcinoma cells (EMAC); settings: cited from earlier work
[5] = Toxicity of continuous oral FTdR in mice
Experimental: as §7

[6] = system: REH acute lymphatic leukemia; assay: Inhibition of proliferation of REH cells; format: cell-based; settings: Homo sapiens
From the text: as §4, §5

[7] = system: K-562 acute myeloic leukemia; assay: Inhibition of proliferation of K-562 cells; format: cell-based; settings: Homo sapiens
From the text: as §4, §5

[8] = target: T1, thymidine-phosphorylase from human spleen (Homo sapiens, UniProt P19971); assay: Phosphorolytic cleavage by thymidine-phosphorylase; format: in vitro ADME
T1 construct: thymidine-phosphorylase from human spleen; from tissue; host or cells: human spleen
T1 sequence (P19971 11-482): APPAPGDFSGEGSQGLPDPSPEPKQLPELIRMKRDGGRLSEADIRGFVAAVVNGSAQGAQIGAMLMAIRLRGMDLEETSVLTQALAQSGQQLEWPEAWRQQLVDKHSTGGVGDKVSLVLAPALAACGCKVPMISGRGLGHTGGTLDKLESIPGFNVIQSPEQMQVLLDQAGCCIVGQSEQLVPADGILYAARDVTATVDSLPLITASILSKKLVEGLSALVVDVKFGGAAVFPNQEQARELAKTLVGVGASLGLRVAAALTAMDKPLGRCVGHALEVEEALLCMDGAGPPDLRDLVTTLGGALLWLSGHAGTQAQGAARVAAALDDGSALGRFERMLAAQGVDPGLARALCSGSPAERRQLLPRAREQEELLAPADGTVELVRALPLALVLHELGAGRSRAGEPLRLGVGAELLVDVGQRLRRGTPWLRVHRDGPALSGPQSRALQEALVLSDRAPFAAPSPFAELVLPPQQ
From the text: Therefore FTdR, FddBrUrd and FddFUrd were investigated for their ability to be cleaved by thymidine-phosphorylase from human spleen.

in vitro = settings: human, mt-4 cells
Experimental: as §6

CEM (LAV-II) = assay: Intracellular phosphorylation of 3H-FTdR in CEM (LAV-II) cells; format: in vitro ADME; settings: 1/um 3H-FTdR, within 24 hours, Human CEM (LAV-II)
Experimental: as §1, §2, §3

[9] = system: HTLV-IIIB -infected H9 cells; settings: 50 μm N3 -TdR, 24-hour incubation; cited from earlier work
[10] = AIDS patients treated; cited from earlier work
[11] = oral 1.8 mg/kg/day, given for 24 days
[12] = 6.5 mg/kg/day in drinking water for 20 days, RLV +
[13] = 6.5 mg/kg/day in drinking water for 20 days, RLV -
[14] = 69.0 mg/kg/day in drinking water for 20 days, RLV +
[15] = 69.0 mg/kg/day in drinking water for 20 days, RLV -

## Cc1cn([C@H]2C[C@H](F)[C@@H](CO)O2)c(=O)[nH]c1=O [FTdR, 2',3'-dideoxy-3'-fluorothymidine]
[1]
  cytostatic effect: only a weak cytostatic effect
NRK-49F
  diphosphate (FdTDP): 3.7 pmoles/106 cells
  monophosphate (FdTMP): 3.5 pmoles/106 cells
  triphosphate (FdTTP): 13.2 pmoles/106 cells
3T3
  diphosphate (FdTDP): 2.2 pmoles/106 cells
  monophosphate (FdTMP): 0.38 pmoles/106 cells
  triphosphate (FdTTP): 16.3 pmoles/106 cells
MT4
  diphosphate (FdTDP): 1.6 pmoles/106 cells
  monophosphate (FdTMP): 9.9 pmoles/106 cells
  triphosphate (FdTTP): 5.6 pmoles/106 cells
[2]; dose required to reduce the cell number by 50%, K-37, read-out: CD50 (the source's name)
  IC50: 260 µM
H9 (HTLV-IIIB)
  diphosphate (FdTDP): 0.3 pmoles/106 cells
  monophosphate (FdTMP): 3.3 pmoles/106 cells
  triphosphate (FdTTP): 1.4 pmoles/106 cells
H9 immortalized T-cells; dose required to reduce the cell number by 50%, H9, read-out: CD50 (the source's name)
  IC50: 1000 µM
HIV; read-out: ED50 (the source's name)
  EC50: 0.003 µM
HIV; cellular test, ratio of ED50
  antiviral activity of FTdR against N3 -TdR: 5 times
[3]; 6.5 mg/kg/day
  suppression of splenomegaly and viremia: completely active in suppressing splenomegaly and viremia
[3]; 6.5 mg/kg/day for 20 days
  Reverse transcriptas serum: 0%
[3]; 6.5 mg/kg/day in drinking water for 20 days
  mean spleen weight: 192 mg
[3]; 69.0 mg/kg/day
  splenomegaly and RLV-associated reverse transcriptase activity in the serum: completely suppresses
[3]; 69.0 mg/kg/day for 20 days
  Reverse transcriptas serum: 0%
[3]; 69.0 mg/kg/day in drinking water for 20 days
  mean spleen weight: 86 mg
[3]; 69.0 mg/kg/day, continuous application for 20 days
  development of RLV induced leukemia: able to prevent the development of a leukemia
[3]; [11]
  suppression of serum reverse transcriptase activity: more than 70%
  suppression of splenomegaly: more than 50%
[4]
  capability of phosphorylation of FTdR in EMAC versus human cells: 10 times
[5]; 6.5 mg/kg/day
  signs of anemia and depression of white cell counts: failed to produce signs of anemia and depression of white cell counts
[5]; [12]
  Hemoglobin: 8.1 mmol/L
  changes of body weight: 0%
[5]; [13]
  Hemoglobin: 8.9 mmol/L
  changes of body weight: +1%
  mean spleen weight: 125 mg
[5]; 69.0 mg/kg/day
  toxic side effects (hematological parameters): toxic side effects are associated with this concentration range
[5]; [14]
  Hemoglobin: 5.1 mmol/L
  changes of body weight: -10%
[5]; [15]
  Hemoglobin: 4.3 mmol/L
  changes of body weight: -12%
  mean spleen weight: 72 mg
[6]; dose required to reduce the cell number by 50%, read-out: CD50 (the source's name)
  IC50: 160 µM
[7]; K562, dose required to reduce the cell number by 50%, K-562, read-out: CD50 (the source's name)
  IC50: 45 µM
[8]
  metabolised at 3 h, 1000 µM: 3 to 8%
In vitro
  CC50 at 144 h: 1.1 µM
CEM (LAV-II)
  diphosphate (FdTDP): 0.5 pmoles/106 cells
  monophosphate (FdTMP): 6.1 pmoles/106 cells
  triphosphate (FdTTP): 2.8 pmoles/106 cells

## Cc1cn([C@H]2C[C@H](N=[N+]=[N-])[C@@H](CO)O2)c(=O)[nH]c1=O [N3 -TdR, 3'-azido-2',3'-dideoxythymidine, reference compound]
[2]; read-out: CD50
  IC50: 500 µM
H9 immortalized T-cells; read-out: CD50
  IC50: 800 µM
HIV; read-out: ED50
  EC50: 0.016 µM
[6]; read-out: CD50
  IC50: 220 µM
[7]; K562, read-out: CD50
  IC50: 50 µM
[9]
  accumulation of the monophosphate: 460 pmoles/10^6 cells
  phosphorylation to the triphosphate: 0.9 pmoles/10^6 cells
[10]
  patients requiring blood transfusions (toxic side effects on the bone marrow): about 50%

Source: US5153180A, “Fluorinated nucleosides and process for treating retrovirus infections therewith” (priority 1990, dated 1992)
